In patent US20130101580A1, “COMPOSITIONS AND METHODS FOR PROLONGING LIFESPAN” (priority 2011, published 2013):
Marks after values point to notes of the source that are not given here.

Tests used:
[1] = test system: Drosophila melanogaster (Oregon); test: Life span of wild type Oregon-R flies with aMT or 5MT added to the nutrition medium; assay type: in vivo; settings: for Life span (days), Maximum / Life span (days), Mean / Life span (days), Median: aMT (18.3 mM) and 5MT (18.3 mM) in medium; for Increase of maximum life span / Increase of mean survival time: vs control
Protocol: Wild type Oregon-R flies were maintained at 23° C. on a standard Drosophila medium consisting of sugar, yeast, agar and semolina. Two concentrations of aMT (alpha-dl-methyl tryptophan) (0.46 mM or 18.3 mM) or 5MT (5-methyl-dl-tryptophan) (2.4 mM and 18.mM) (Sigma Aldrich Chemical Co, USA) were added to nutrition medium of experimental groups. To examine lifespan, 1-day old adult flies were collected and then regularly transferred to fresh medium every 3-4 days. The number of dead flies was recorded at the time of transfer.
The data were analyzed using two ways ANOVA and Log rank test.

[2] = test system: Drosophila melanogaster (Oregon); test: as above; assay type: in vivo

Row | SMILES | Life span (days), Maximum ([1]; FEMALE flies) | Life span (days), Mean ([1]; FEMALE flies) | Life span (days), Median ([1]; FEMALE flies) [days] | Life span (days), Maximum ([1]; MALE flies) [days] | Life span (days), Mean ([1]; MALE flies) | Life span (days), Median ([1]; MALE flies) | Increase of maximum life span ([1]; female flies, 5MT 34.5 mM, p<0.0001, two way ANOVA) [%] | Female flies surviving longer than 53 days (maximum life span of female control group) ([1]; female flies, high concentrations of 5MT (34.5 mM), 11 out of 58) [%] | Effect on life span of Drosophila ([2]; 5MT 2.3 mM in medium) | Increase of mean survival time ([2]; female flies, 5MT 34.5 mM, vs control, p<0.0001, two way ANOVA) [%] | Longest survival of treated female flies ([2]; female flies, high concentrations of 5MT (34.5 mM)) | Effect on life span of Drosophila ([1]; aMT 0.46 mM in medium) | Increase of maximum life span ([1]; female flies, aMT 18.3 mM, p<0.0001) [%] | Female flies surviving longer than 53 days (maximum life span of female control group) ([1]; female flies, high concentration of aMT (18.3 mM), 13 out of 51) [%] | Increase of mean survival time ([1]; females, aMT 18.3 mM, p<0.0001, two way ANOVA) [%] | Increase of maximum life span ([1]; male flies, aMT 18.3 mM, p<0.0001) [%] | Effect on life span of male flies ([1]; male flies, high concentration (18.3 mM)) | Male flies surviving longer than 40 days (maximum life span of 72 out of 73 control flies) ([1]; male flies, high concentration of aMT (18.3 mM), 29 out of 40) [%] | Increase of mean survival time ([1]; males, aMT 18.3 mM, p<0.0001, two way ANOVA) [%]
1 | Cc1ccc2[nH]cc(CC(N)C(=O)O)c2c1 (racemic) [5MT, 5-methyl-dl-tryptophan] | 65* days | 48.5* days | 50 | 40 | 26.7 days | 30 days | 23 | 19 | did not affect | 21 | up to 65 days |  |  |  |  |  |  |  | 
2 | C[C@](N)(Cc1c[nH]c2ccccc12)C(=O)O (racemic) [aMT, alpha-dl-methyl tryptophan] |  | 51.7* days | 50 |  | 40.2* days | 43* days |  |  |  |  |  | did not affect | 23 | 25 | 27 | 21 | did not affect | 60 | 42
